According to US7273873B2, “Camptothecins with a modified lactone ring” (Sigma-Tau Industrie Farmaceutiche Riunite S.p.A., priority 2002, dated 2007):
Like-named read-outs stand apart in the source and are kept apart here.

Assays:
NCI-H460 = assay: Antiproliferative (cytotoxicity) test, sulforhodamine B, NCI-H460 cells; format: cell-based, human
Excerpt: The cytotoxic activity of the compounds according to the present invention has been assayed in cell systems of human tumour cells, using the antiproliferative activity test as the method of evaluating the cytotoxic potential.
The cell line used is a non-microcytoma pulmonary adenocarcinoma called NCI H460, belonging to the NSCLC (non small cell lung cancer) class.
To evaluate the effect of the compounds according to the present invention, their cytotoxocity against the non-microcytoma lung cancer cell line (NCI-H460) was evaluated. Cells from the American Type Culture Collection (ATCC) were maintained in culture in RPMI 1640 (GIBCO) containing 10% foetal calf serum and gentamicin sulphate at a concentration of 50 µg/ml.
The cells were seeded in a volume of 250 μl in 96-well plates and incubated for 24 h at 37° C. The next day the study compounds were added at scalar concentrations from 1 μM to 0.004 μM, and the cells were incubated for another 2 h at 37° C. in a humidified atmosphere containing 5% CO2. The cells were washed 3 times, overturning the plates each time and adding PBS. 200 μl/well of RPMI 1640 medium containing 10% FCS were added and the plates were incubated at 37° C. for a further 72 h. On day 5, the growth medium was removed by overturning the plates, and 200 μl/well of PBS and 50 μl of 80% cold TCA were added. The plates were then incubated in ice for at least 1 h. The TCA was removed by overturning; the plates were washed 3 times by immersion in distilled water and dried first on blotting paper and then under a hot air jet. 200 μl of 0.4% sulforodamine B in 1% acetic acid were added to all wells. The plates were incubated at room temperature for a further 30 minutes. The sulforodamine B was removed by overturning; the plates were washed by immersion 3 times in 1% acetic acid and then dried first on blotting paper and then with a jet of hot air. 200 μl of Tris base 10 mM were added to all wells and the plates were subjected to stirring for at least 20 minutes. The optical density was measured using a Multiskan spectrophotometer at 540 nm.
Table 1 presents the IC50 values, that is to say the concentration capable of inhibiting 50% of cell survival, for each compound examined, processed using ALLFIT software.

[1] = 2 h exposure, 72 h recovery, sulforodamine B, concentration inhibiting 50% of cell survival, read-out: NCI-H460 IC50

Compound	IC50 (NCI-H460; [1]) [nM]	also measured
CCC1(CC(=O)OC(C)(C)C)OC(=O)c2c1cc1n(c2=O)Cc2cc3ccccc3nc2-1 (centres unmarked) [ST2084, Ter-butyl ester of (3-ethyl-1,13-dioxo-11,13-dihydro-1H,3H-furo[3′,4′:6,7]indolizino[1,2-b]quinolin-3-yl)acetic acid]	> 1000	
CCC1(CC(=O)O)OC(=O)c2c1cc1n(c2=O)Cc2cc3ccccc3nc2-1 (centres unmarked) [ST2085, (3-ethyl-1,13-dioxo-11,13-dihydro-1H,3H-furor[3′,4′:6,7]indolizino[1,2-b]quinolin-3-yl)acetic acid]	> 1000	
CCC1(O)CC(=O)OCc2c1cc1n(c2=O)Cc2c-1nc1ccccc1c2C=NOC(C)(C)C (centres unmarked) [ST2127, R,S-7-(1-t-butoxy)iminomethyl-homocamptothecin]	26	
CCC1(O)CC(=O)OCc2c1cc1n(c2=O)Cc2c-1nc1ccccc1c2/C=N/OCc1ccccc1 (centres unmarked) [ST2143, R,S-7-benzyloxyiminomethyl-homocamptothecin]	7	
CCC1(CC(=O)O)OC(=O)c2c1cc1n(c2=O)Cc2c-1nc1ccccc1c2/C=N/OC(C)(C)C (centres unmarked) [ST2196, {10-[(E)-(ter-butoxyimino)methyl]-3-ethyl-1,13-dioxo-11,13-dihydro-1H,3H-furo[3′,4′:6.7]indolizino[1,2-b]quinolin-3-yl} acetic acid]	> 1000	
CCC1(CC(=O)O)OC(=O)c2c1cc1n(c2=O)Cc2c-1nc1ccccc1c2/C=N/OCc1ccccc1 (centres unmarked) [ST2285, (10-{(E)-[(benzyloxy)imino]methyl}-3-ethyl-1,13-dioxo-11,13-dihydro-1H,3H-furo[3′,4′:6,7]indolizino[1,2-b]quinolin-3-yl)-acetic acid]		melting point: 188 °C (dec.); IC50 (NCI-H460; Homo sapiens, NCI-H460, 2 h exposure, 72 h recovery, sulforodamine B, concentration inhibiting 50% of cell survival, read-out: NCI-H460 IC50): > 1000 nM
CCC1(O)CC(=O)OCc2c1cc1n(c2=O)Cc2c-1nc1ccccc1c2C=NOC(C)(C)C (centres unmarked) [ST2523]		IC50 (NCI-H460; H460 cells, isolated enantiomers of ST2127, read-out: IC50 (H460)): > 200 nM
